One data set relates to HEK cells. The experiment in a line: Internalization of peptides on phage by confocal microscopy. The data set is classed as cell-based. To be noted: peptide displayed on phage, compared with ORD 5 phage pools. The source says:
Confocal microscopy was used to investigate the internalization and cytoplasmic localization of the selected peptides on phage. First, we used the phage pool. […] Some of these peptides had been identified from the selection against all three cell lines and some were cell-type selective. […] Representative images showing different internalization levels of NNJA peptides on phage were shown in Supplementary Fig. S6. Confirmation of internalization for select peptides was obtained using the same approach in Caco2 cells (Supplementary Figs. S7, S8).
Cells were fixed with 4% paraformaldehyde (PFA) on ice for 20 min after the washing steps. Fixed cells were washed with PBS for three times to remove any excess PFA, and followed by 1 h blocking in 3% bovine serum albumin (BSA) in Tris buffer saline (TBS) with 0.2% triton X-100, and antibodies staining in TBS with 0.2% triton X-100. Primary antibodies were incubated with cell samples overnight at 4 °C. Following PBS washes, species-specific Alexa Fluor 488, Alexa Fluor 568, and/or Alexa Fluor 647-coupled secondary antibodies were used for signal detection. Imaging data collection was conducted on an LSM800 (Zeiss) confocal microscope, using a 40× (NA 1.1 W LD C-Apochromat, Zeiss) objective. Controls treated with secondary antibody were shown negative or undetectable signal.

The subject of a further data set is HEK-239 cells. Nature of the data set: Double-displayed phage carrying streptavidin-HRP, cellular uptake detected with TMB. Format: cell-based. The note with it: peptide displayed on phage PIII, streptavidin-HRP on pIX; n = 2. As for the experimental part:
(§1) We further evaluated the ability of NNJA peptides on phage to deliver functional groups into HEK-239 and CaCo2 cells by displaying an Avi-tag peptide on the minor coat protein pIX. Post biotinylation of Avi-tag by BirA, streptavidin-HRP was added to phage, forming a phage-protein complex (Avi[bio]/CPP-SA-HRP).
(§2) A randomly picked peptide ([…]) from the naïve library was incorporated in the setting and served as one of the negative controls. The method was described previously. Cell viability was evaluated in a replicated experimental group under the same assay condition using CellTiter-Glo luminescent cell viability assay from Promega.

The next data set has as its system Caco2 cells. To be noted: peptide displayed on phage PIII, streptavidin-HRP on pIX; n = 2. As to the method:
as §1, §2

The values below come from paper PMC11167021, “Discovery of a new class of cell-penetrating peptides by novel phage display platform” (Scientific Reports, 2024).

As to GRKKRRQRRRPQ [Tat48–60, classic CPP], in the data set on HEK cells, the “phage internalization in HEK cells, M13 antibody signal” value is recorded as “lower signal intensity”.
For “TVSRELTPL (phage displayed) [random peptide]”, the “cellular uptake of phage-protein complex (Avi[bio]/CPP-SA-HRP), TMB signal, HEK-239 cells” value with HEK-239 cells was “minimum signal”. The “cellular uptake of phage-protein complex (Avi[bio]/CPP-SA-HRP), TMB signal, CaCo2 cells” value in the data set on Caco2 cells is on record as “minimum signal”.
